Measurements published in patent publication US9026203B2, “Photosensitizing compositions” (PCI Biotech AS, priority 2009, dated 2015).
Like-named read-outs stand apart in the source and are kept apart here.

How the values were obtained:
[1] = Stability of aqueous solutions of salts at 40° C., analyzed by HPLC; format: physicochemical
Experimental: Aqueous solutions of TPPS2a salts (approx. 1% weight) were kept at 40° C. for 31 days. The solutions were analyzed by HPLC (HP 1100). The HPLC conditions were as follows:
Column: Agilent Extend C-18
Mobile phase: 85% methanol, 15% water
Detector: UV detector, 415 nm
Aqueous solutions of TPCS2a salts (approx. 1% weight) were kept at 40° C. for 31 days.

[2] = Solubility of salts in water (water added in 0.2 ml portions); format: physicochemical
Text: The mixture was agitated until solid particles were broken up and dissolved.

[3] = test system: target tumour (head and neck squamous cell carcinoma, osteosarcoma, skin metastases of breast cancer); conditions: other photosensitizers formulated in non-aqueous formulations; cited from earlier work
[4] = test system: target tumour (head and neck squamous cell carcinoma, osteosarcoma, skin metastases of breast cancer); format: in vivo, patients; conditions: 0.25-1.0 mg/kg 4 days before illumination (652 nm, 60 J/cm^2), bleomycin 15 000 IU per m^2 i.v. 3 hours before illumination; a few weeks after treatment
Experimental: In addition, the patients received an intravenous injection of the cytotoxic agent bleomycin (15 000 IU per m^2 body surface) 3 hours before illumination. […] The aqueous formulation also made it possible to flush the injection needle and vein with saline after photosensitizer injection, thereby eliminating the unwanted effect of photosensitivity at or near to the injection site which is often observed for photosensitizers in non-aqueous formulations where such flushing is not possible. The patient population included patients with head and neck cancers (squamous cell carcinoma), osteosarcoma and skin metastases of breast cancer.

[5] = aqueous solution approx. 1% weight, 40° C. for 31 days, HPLC UV 415 nm

Degradation [1]	Molecule	Degradation [1, 5]	other results
	NCCO.NCCO.O=S(=O)(O)c1ccc(-c2c3nc(c(-c4ccc(S(=O)(=O)O)cc4)c4ccc([nH]4)c(-c4ccccc4)c4nc(c(-c5ccccc5)c5ccc2[nH]5)C=C4)C=C3)cc1 [Example 1, Meso-Tetraphenyl Porphyrin Disulphonate bis(monoethanolamine)]	No degradation	
No degradation	CNCC(O)C(O)C(O)C(O)CO.CNCC(O)C(O)C(O)C(O)CO.O=S(=O)(O)c1ccc(-c2c3nc(c(-c4ccccc4)c4ccc([nH]4)c(-c4ccccc4)c4nc(c(-c5ccc(S(=O)(=O)O)cc5)c5ccc2[nH]5)C=C4)C=C3)cc1 [Example 2, Meso-Tetraphenyl Porphyrin Disulphonate bis(meglumate)]		Minimum solubility in water [2]: 89.7 mg/mL
No degradation	O=S(=O)(O)c1ccc(-c2c3nc(c(-c4ccccc4)c4ccc([nH]4)c(-c4ccccc4)c4nc(c(-c5ccc(S(=O)(=O)O)cc5)c5ccc2[nH]5)C=C4)C=C3)cc1.OCCNCCO.OCCNCCO [Example 4, Meso-Tetraphenyl Porphyrin Disulphonate bis(diethanolamine)]		
	O=S(=O)(O)c1ccc(-c2c3nc(c(-c4ccc(S(=O)(=O)O)cc4)c4ccc([nH]4)c(-c4ccccc4)c4nc(c(-c5ccccc5)c5ccc2[nH]5)C=C4)C=C3)cc1.OCCN(CCO)CCO.OCCN(CCO)CCO [Example 6, Meso-Tetraphenyl Porphyrin Disulphonate bis(triethanolamine)]	No degradation	
	Oc1cccc(-c2c3nc(c(-c4cccc(O)c4)c4ccc([nH]4)c(-c4cccc(O)c4)c4nc(c(-c5cccc(O)c5)c5ccc2[nH]5)CC4)C=C3)c1 [temoporfin]		Pain on administration [3]: can be associated with strong pain
	Meso-Tetraphenyl Chlorin Disulphonate bis(meglumate) [Example 8]	No degradation	Minimum solubility in water ([2]; approx. 50 mg salt, water added in 0.2 ml portions until dissolved): 38.9 mg/mL
No degradation	Meso-Tetraphenyl Chlorin Disulphonate bis(monoethanolamine) [Example 7]		
	Meso-tetraphenyl chlorin disulphonate [TPCS2a]		Clinical regression of the target tumour [4]: Complete clinical regression of the target tumour was induced in all patients

Molecule	Degradation [1]	Degradation [1, 5]	other results
O=S(=O)(O)c1ccc(-c2c3nc(c(-c4ccc(S(=O)(=O)O)cc4)c4ccc([nH]4)c(-c4ccccc4)c4nc(c(-c5ccccc5)c5ccc2[nH]5)C=C4)C=C3)cc1.OCCN1CCCC1.OCCN1CCCC1 [Example 5, Meso-Tetraphenyl Porphyrin Disulphonate bis(1-(2-hydroxyethyl)pyrrolidine)]	No degradation		
